Literature values in patent US20060168671A1, “Injection of caprine sperm factor (cSF), phospholipase C zeta (PLCzeta) and adenophostin A as alternative methods of activation during nuclear transfer in the caprine species” (priority 2005, published 2006).

What was measured:
[1] = test system: IP3R; conditions: relative to IP3; Takahashi et al., 1994
[2] = test system: MII mouse eggs; conditions: Jellerette et al., 2000

## Nc1ncnc2c1ncn2[C@@H]1O[C@H](CO)[C@@H](O[C@H]2O[C@H](CO)[C@@H](OP(=O)(O)O)[C@H](OP(=O)(O)O)[C@H]2O)[C@H]1OP(=O)(O)O [Adenophostin A]
[1]
  affinity to IP3R greater than IP3 itself: 10-100 fold
[2]
  [Ca2+]i oscillations: induces fertilization-like oscillations
  activation rates: high activation rates
